Laboratory results taken from BindingDB's records for patent US10556885 (Samumed, 2020).

How the values were obtained:
[1] = target: Glycogen synthase kinase-3 beta (Homo sapiens, UniProt P49841); test: Z-lyte Assay
[2] = target: Dual specificity tyrosine-phosphorylation-regulated kinase 1A (Homo sapiens, UniProt Q13627); test: Z-lyte Assay
Experimental: All reactions were performed in duplicate.

Chain of Glycogen synthase kinase-3 beta (P49841 whole entry): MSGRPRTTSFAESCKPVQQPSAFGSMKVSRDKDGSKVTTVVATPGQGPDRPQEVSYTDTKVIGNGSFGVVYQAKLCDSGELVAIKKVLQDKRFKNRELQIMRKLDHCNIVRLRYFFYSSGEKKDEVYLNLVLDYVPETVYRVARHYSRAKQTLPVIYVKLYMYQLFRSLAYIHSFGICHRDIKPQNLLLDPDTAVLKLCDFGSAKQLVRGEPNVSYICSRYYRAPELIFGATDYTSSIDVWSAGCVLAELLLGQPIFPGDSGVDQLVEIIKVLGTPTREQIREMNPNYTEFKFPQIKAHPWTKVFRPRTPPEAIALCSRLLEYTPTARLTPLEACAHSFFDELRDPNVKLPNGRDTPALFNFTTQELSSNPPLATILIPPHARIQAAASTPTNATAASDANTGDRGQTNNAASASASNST

- EC50 [1]: 53 nM
- EC50 [2]: 3.4 nM
Structure (SMILES): Cc1ncc(-c2ccc3cnc(NC(=O)C4CCC(F)(F)CC4)cc3c2)[nH]1 [US10556885, Compound 121]
